# Test results published in patent US8507464B2, “Phosphoramidate alkylator prodrugs” (Threshold Pharmaceuticals, Inc., priority 2005, dated 2013).
# Read-outs that look alike come from different tables or passages of the source.
# Key:
# [1] = format: physicochemical; conditions: glassy carbon, Ag/AgCl reference; for Reduction Potentials, 100 mV/sec: scan rate 100 mV/sec; for Reduction Potentials, 10,000 mV/sec: scan rate 10,000 mV/sec
# [2] = tested on: NCI-H460 cells; assay: Antiproliferation assay (Alamar Blue), anoxia vs air
# [3] = tested on: H460 cell line; assay: Anti-proliferation assay, hypoxia vs normoxia (Table 1A); conditions: for IC50: Homo sapiens; for HCR P: ratio of IC50 in normoxia and hypoxia
# [4] = tested on: NCI-H460 cells; assay: Antiproliferation assay - oxygen dependence; format: cell-based, human
# Excerpt: . […] The calculated IC50 values (μM) are tabulated in Table Y1 (H460 cells) or Table Y2 (HT29 cells) below.
# [5] = Homo sapiens, NCI-H460, 2 h, read-out: IC50 H460 Air, air, 2 h exposure
# [6] = Homo sapiens, NCI-H460, 2 h, read-out: IC50 H460 Anoxia, anoxia, 2 h exposure
# [7] = NCI-H460, read-out: Hypoxia P (proliferation IC50)
# [8] = NCI-H460, read-out: Normoxia P (proliferation IC50)
# [9] = Homo sapiens, NCI-H460, read-out: IC50 in H460 cells, 0.6% O2
# [10] = Homo sapiens, NCI-H460; read-out: IC50 in H460 cells, Air
# [11] = Homo sapiens, NCI-H460, read-out: IC50 in H460 cells, Air
# [12] = Homo sapiens, NCI-H460; read-out: IC50 in H460 cells, N2
# [13] = Homo sapiens, NCI-H460, read-out: IC50 in H460 cells, N2
# [14] = read-out: IC50 H460 Air, air, 2 h exposure
# [15] = read-out: IC50 H460 Anoxia, anoxia, 2 h exposure
# [16] = Air; read-out: IC50 in H460 cells, Air
# [17] = N2; read-out: IC50 in H460 cells, N2
# [18] = read-out: IC50 in H460 cells, 0.6% O2
Compound,"IC50 [2, 5]","IC50 [2, 6]","IC50 [3, 7]","IC50 [3, 8]",HCR P [3],"IC50 [4, 9]",other results
"O=[N+]([O-])c1ncc[nH]1 [2-NO2-Imidazole, reference compound]",,,,,,,"Reduction Potentials, 100 mV/sec [1]: −634 mV; Reduction Potentials, 10,000 mV/sec [1]: −693 mV"
CC(OP(N)(=O)N(CCCl)CCCl)c1ncc([N+](=O)[O-])n1C (stereo not shown) [Compound 2],> 100 µM,8 µM,8 µM,> 100 µM,>12,,
Cn1c([N+](=O)[O-])cnc1COc1ccc(COP(N)(=O)N(CCCl)CCCl)cc1F (stereo not shown) [Compound 3],> 100 µM,> 20 µM,> 20 µM,> 100 µM,>5,,
CN(C)P(=O)(OCc1cnc([N+](=O)[O-])n1C)N(CCCl)CCCl (stereo not shown) [Compound 4],> 100 µM,40 µM,40 µM,> 100 µM,>2,,
CN(CCCl)P(=O)(OCc1ccc([N+](=O)[O-])o1)N(C)CCCl [Compound 8],0.6 µM,0.013 µM,0.01 µM,0.6 µM,60,,
CN(CCCl)P(=O)(OCc1ncc([N+](=O)[O-])n1C)N(C)CCCl [Compound 9],> 100 µM,> 10 µM,> 10 µM,> 100 µM,>10,,
O=[N+]([O-])c1ccc(COP(=O)(N(CCCl)CCCl)N2CCCC2)o1 (stereo not shown) [Compound 11],> 100 µM,5.2 µM,5.2 µM,> 100 µM,>20,,
O=[N+]([O-])c1ccc(COP(=O)(N(CCCl)CCCl)N2CCOCC2)o1 (stereo not shown) [Compound 12],> 100 µM,1.7 µM,1.7 µM,> 100 µM,>50,,
CC(C)N(CCCl)P(=O)(OCc1cnc([N+](=O)[O-])n1C)N(CCCl)C(C)C [Compound 14],> 100 µM,8.5 µM,8.5 µM,> 100 µM,>12,,
CCN(CCCl)P(=O)(OCc1cnc([N+](=O)[O-])n1C)N(CC)CCCl [Compound 15],1 µM,0.08 µM,0.08 µM,1 µM,12,,
CN(CCCl)P(=O)(OCc1c(F)c(F)c(OCc2ncc([N+](=O)[O-])n2C)c(F)c1F)N(C)CCCl [Compound 17],9 µM,1 µM,1 µM,9 µM,9,,
COc1cc(COP(=O)(N(C)CCCl)N(C)CCCl)ccc1OCc1cnc([N+](=O)[O-])n1C [Compound 18],9 µM,3.4 µM,3.4 µM,9 µM,3,,
O=[N+]([O-])c1ccc(COP(=O)(NCCCCNP(=O)(OCc2ccc([N+](=O)[O-])o2)N(CCCl)CCCl)N(CCCl)CCCl)o1 (stereo not shown) [Compound 20],,,1 µM,8.5 µM,8,,
O=[N+]([O-])c1ccc(COP(=O)(NCCNP(=O)(OCc2ccc([N+](=O)[O-])o2)N(CCCl)CCCl)N(CCCl)CCCl)o1 (stereo not shown) [Compound 21],,,0.25 µM,7.8 µM,26,,
Cn1c(COc2ccc(COP(N)(=O)N(CCCl)CCCl)cc2F)cnc1[N+](=O)[O-] (stereo not shown) [Compound 22],16 µM,0.7 µM,0.7 µM,16 µM,23,,
Cn1c(COc2ccc(COP(=O)(NCCCl)NCCCl)cc2F)cnc1[N+](=O)[O-] [Compound 27],100 µM,,2.5 µM,100 µM,40,,
O=[N+]([O-])c1ccc(COCOP(=O)(NCCCl)NCCCl)o1 [Compound 31],> 100 µM,83 µM,83 µM,> 100 µM,>1,,
Cn1c(COP(=O)(NCCCl)NCCCl)nc(Br)c1[N+](=O)[O-] [Compound 32],100 µM,50 µM,50 µM,100 µM,2,,
C[C@H](CCl)NP(=O)(N[C@H](C)CCl)OCc1ccc(-c2ccc([N+](=O)[O-])s2)cc1 [Compound 52],20 µM,15 µM,,,,10 µM,"IC50 [4, 10]: 20 µM"
O=[N+]([O-])c1ccc(-c2ccc(COP(=O)(NCCBr)NCCBr)cc2)s1 [Compound 53],10 µM,3 µM,,,,5 µM,"IC50 [4, 11]: 10 µM"
COc1cc(COP(=O)(N[C@H](C)CCl)N[C@H](C)CCl)ccc1OCc1cnc([N+](=O)[O-])n1C [Compound 54],60 µM,1 µM,,,,30 µM,"IC50 [4, 10]: 60 µM; IC50 [4, 12]: 1 µM"

Compound,"IC50 [2, 5]","IC50 [2, 6]","IC50 [3, 7]","IC50 [3, 8]",HCR P [3],"IC50 [4, 9]",other results
O=[N+]([O-])c1ccc(-c2ccc(COP(=O)(NCCBr)NCCBr)cc2)o1 [Compound 55],12 µM,5 µM,,,,8 µM,"IC50 [4, 11]: 12 µM; IC50 [4, 13]: 5 µM"
COc1cc(COP(=O)(NCCBr)NCCBr)ccc1OCc1cnc([N+](=O)[O-])n1C [Compound 56],10 µM,0.5 µM,,,,8 µM,"IC50 [4, 11]: 10 µM; IC50 [4, 13]: 0.5 µM"
CC(OP(=O)(NCCBr)NCCBr)c1ccc(OCc2cnc([N+](=O)[O-])n2C)c([N+](=O)[O-])c1 (stereo not shown) [Compound 61],,,,,,,"IC50 [2, 14]: 4 µM; IC50 [2, 15]: 0.3 µM; IC50 [4, 16]: 4 µM; IC50 [4, 17]: 0.3 µM; IC50 [4, 18]: 4 µM"
CCN(CCOP(=O)(NCCBr)NCCBr)C(=O)OCc1cnc([N+](=O)[O-])n1C [Compound 62],45 µM,2 µM,,,,30 µM,"IC50 [4, 11]: 45 µM; IC50 [4, 13]: 2 µM"
O=[N+]([O-])c1cnc(-c2ccc(COP(=O)(NCCBr)NCCBr)cc2)s1 [Compound 63],8 µM,1 µM,,,,15 µM,"IC50 [4, 11]: 8 µM; IC50 [4, 13]: 1 µM"
C[C@H](CBr)NP(=O)(N[C@H](C)CBr)OCc1cnc([N+](=O)[O-])n1C [Compound 66],,,,,,,"IC50 ([2]; read-out: IC50 H460 Anoxia): 0.3 µM; IC50 [4, 18]: 20 µM; IC50 ([4]; read-out: IC50 in H460 cells, N2): 0.3 µM"
CC(OP(=O)(NCCBr)NCCBr)c1ccc([N+](=O)[O-])cc1 (stereo not shown) [Compound 78],> 100 µM,> 100 µM,,,,,"Reduction Potentials, 100 mV/sec [1]: −704 mV; Reduction Potentials, 10,000 mV/sec [1]: −746 mV"
CCCn1c(COP(=O)(NCCBr)NCCBr)cnc1[N+](=O)[O-] [Compound 84],40 µM,0.003 µM,,,,3 µM,"IC50 [4, 11]: 40 µM"
N#Cc1cc(C#CCOP(=O)(NCCBr)NCCBr)sc1[N+](=O)[O-] [Compound 98],,,,,,,"IC50 [2, 14]: 2 µM; IC50 [2, 15]: 0.1 µM; IC50 [4, 16]: 2 µM; IC50 [4, 18]: 0.5 µM"
CC#Cc1cc(COP(=O)(NCCBr)NCCBr)sc1[N+](=O)[O-] [Compound 99],,,,,,,"IC50 [2, 14]: 1 µM; IC50 [2, 15]: 0.1 µM; IC50 [4, 16]: 1 µM; IC50 [4, 18]: 0.5 µM"
Cc1csc(C(C)OP(=O)(NCCCl)NCCCl)c1[N+](=O)[O-] (stereo not shown) [Compound 100],,,,,,,"IC50 [2, 14]: 35 µM; IC50 [2, 15]: 0.5 µM; IC50 [4, 16]: 35 µM; IC50 [4, 17]: 0.5 µM; IC50 [4, 18]: 10 µM"
Cc1csc(C(C)OP(=O)(NCCBr)NCCBr)c1[N+](=O)[O-] (stereo not shown) [Compound 103],,,,,,,"Reduction Potentials, 10,000 mV/sec [1]: −756 mV; IC50 [2, 14]: 2 µM; IC50 [2, 15]: 0.02 µM"
O=[N+]([O-])c1ccc(COP(=O)(NCCOS(=O)(=O)c2ccccc2)NCCOS(=O)(=O)c2ccccc2)o1 [Compound 106],,,,,,0.7 µM,"IC50 ([2]; Homo sapiens, NCI-H460, 2 h, read-out: IC50 H460 Air): 3.5 µM; IC50 ([2]; Homo sapiens, NCI-H460, 2 h, read-out: IC50 H460 Anoxia): 0.09 µM; IC50 [4, 10]: 4 µM; IC50 [4, 12]: 0.1 µM"
O=[N+]([O-])c1ccc(COP2(=O)N(CCBr)CCN2CCBr)o1 [Compound 109],13 µM,0.3 µM,,,,10 µM,"IC50 [4, 11]: 15 µM; IC50 [4, 13]: 0.3 µM"
O=[N+]([O-])c1ccc(COP2(=O)N(CCBr)CCN2CCBr)s1 [Compound 110],21 µM,0.3 µM,,,,3 µM,"IC50 [4, 11]: 25 µM; IC50 [4, 13]: 0.3 µM"
CC(C)(OP(N)(=O)N(CCCl)CCCl)c1ccc([N+](=O)[O-])cc1 (stereo not shown) [Compound 113],≥ 100 µM,1 µM,,,,> 100 µM,"IC50 [4, 11]: > 100 µM; IC50 [4, 13]: 1 µM"
CC(OP(N)(=O)N(CCCl)CCCl)c1cnc([N+](=O)[O-])n1C (stereo not shown) [Compound 114],80 µM,1 µM,,,,5 µM,"IC50 [4, 11]: 80 µM; IC50 [4, 13]: 1 µM"
"O=[N+]([O-])c1ccc(COP(=O)(N(CCCl)CCCl)N(CCCl)CCCl)o1 [Compound P22, reference compound]",,,4.5 µM,3.5 µM,ca. 1,,
Cn1c([N+](=O)[O-])cnc1COc1ccc(COP(N)(=O)N(CCCl)CCCl)cc1 (stereo not shown) [Compound S1],,,> 40 µM,> 100 µM,>3,,
Cn1c(COP2(=O)N(CCCl)CCN2CCCl)cnc1[N+](=O)[O-] [Compound S2],,,7 µM,> 100 µM,>14,,
